Where a SMILES comes first, the peptide text is derived from it. Bridges are numbered along the chain shown (N, C = ends).
Tests used:
[1] = molecular target: T1, V1aR (V1a receptor) (Homo sapiens, UniProt P37288); test: Competition radioligand binding assay, [3H]-vasopressin displacement; settings: membranes from V1a receptor-expressing HEK293 cells, [3H]-vasopressin 2 nM
T1 construct: expressed in transfected cells; host or cells: HEK293
Description: (§1) Competition Radioligand Binding Assay Experimental Procedures
(§2) Reactions were incubated for 90 min at 4 C to reach equilibrium, and terminated by rapid filtration over glass fibre filters (Whatman GF/A […]), and washing with ice-cold reaction buffer. Radioactivity was detected after soaking filters in Microscint 0 using a Microbeta2 2450 microplate-reader (Perkin Elmer).

[2] = molecular target: T2, OXTR (OT receptor) (Homo sapiens, UniProt P30559); test: HTRF-IP1 accumulation assay, antagonist assessment; type: cell-based; design: expressed in transfected cells; host or cells: HEK293
T2 sequence (P30559 1-389): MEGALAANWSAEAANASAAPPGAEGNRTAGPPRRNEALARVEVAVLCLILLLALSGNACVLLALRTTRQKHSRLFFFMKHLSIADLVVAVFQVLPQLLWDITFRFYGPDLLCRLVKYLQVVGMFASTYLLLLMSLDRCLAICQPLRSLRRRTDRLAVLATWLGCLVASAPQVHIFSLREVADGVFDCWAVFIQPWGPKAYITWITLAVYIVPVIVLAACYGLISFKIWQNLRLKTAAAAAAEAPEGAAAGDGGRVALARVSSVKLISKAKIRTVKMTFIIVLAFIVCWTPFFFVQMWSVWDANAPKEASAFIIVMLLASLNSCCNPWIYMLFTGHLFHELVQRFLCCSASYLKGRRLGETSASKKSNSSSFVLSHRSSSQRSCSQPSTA

[3] = molecular target: T2, OXTR (OT receptor); test: cell-based; settings: for Emax: read-out: Emax (% OXT)
[4] = molecular target: T2, OXTR (OT receptor); test: Competition radioligand binding assay, [3H]-oxytocin displacement; design: expressed in transfected cells; host or cells: HEK293; settings: membranes from OT receptor-expressing HEK293 cells, [3H]-oxytocin 10 nM
Description: as §1, §2

[5] = molecular target: T1, V1aR (V1a receptor); test: HTRF-IP1 accumulation assay, antagonist assessment; type: cell-based; settings: against EC70 concentration of vasopressin
[6] = test system: OXTR or V1aR receptors; test: Activity/selectivity at OXTR or V1aR receptors stated in words; settings: OXTR over V1aR
[7] = molecular target: T1, V1aR (V1a receptor); test: HTRF-IP1 accumulation assay, agonist assessment; type: cell-based; settings: for EC50: V1a receptor-expressing HEK293 cells, IP1 accumulation, 1 h incubation
Description: HTRF-IP1 Accumulation Assay Experimental Procedures
OT or V1a receptor-expressing HEK293 cells were seeded onto clear, poly-L-lysine (100 μg/mL)-coated 384 well plates at a density of 8.75×10^3 cells per well. Levels of receptor activation induced by compounds were assessed at concentrations ranging from 1 nM to 100 μM using the HTRF IP-One kit (CisBio International, Bagnolssur-Cze, France), according to manufacturers protocol. For agonist assessment, cells were incubated with compounds for 1 h prior to the addition of Ab-Cryptate and IP1-d2. The ligand concentration that induced a 50% maximal response (EC50) was used to evaluate functional effects across compounds. […] Cells were then incubated for a further 1 h, and Ab-Cryptate and IP1-d2 added.

T1 sequence (P37288 whole entry, species assumed): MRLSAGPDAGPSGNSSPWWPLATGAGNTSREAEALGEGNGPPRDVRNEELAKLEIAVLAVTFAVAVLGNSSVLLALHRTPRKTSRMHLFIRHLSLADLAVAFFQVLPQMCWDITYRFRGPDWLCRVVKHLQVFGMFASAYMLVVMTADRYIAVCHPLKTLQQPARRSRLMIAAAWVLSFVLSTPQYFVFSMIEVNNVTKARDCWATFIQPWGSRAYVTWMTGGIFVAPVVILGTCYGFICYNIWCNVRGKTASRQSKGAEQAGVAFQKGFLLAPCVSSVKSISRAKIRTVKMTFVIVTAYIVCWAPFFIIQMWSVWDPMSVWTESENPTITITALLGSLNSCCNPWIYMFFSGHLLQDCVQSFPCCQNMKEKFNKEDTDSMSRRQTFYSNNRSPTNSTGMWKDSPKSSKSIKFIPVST

## CC[C@H](C)[C@@H]1NC(=O)[C@H](Cc2ccc(O)cc2)NC(=O)[C@@H](N)CSSC[C@@H](C(=O)N2CCC[C@H]2C(=O)N[C@@H](CC(C)C)C(N)=O)NC(=O)[C@H](CC(N)=O)NC(=O)[C@H](CCC(N)=O)NC1=O [Metabolite A] (H-CYIQNCPL-NH2; disulfide 1-6)
[1]
  Ki: 749 nM
[2]
  IC50: > 10000 nM
[3]
  EC50: 274 nM
  Emax: 79.2%
[4]
  Ki: 138 nM
[5]
  IC50: > 10000 nM
[6]
  selectivity and activity compared with oxytocin: enhanced selectivity and activity
[7]
  EC50: > 10000 nM

## CC[C@H](C)[C@@H]1NC(=O)[C@H](Cc2ccc(O)cc2)NC(=O)[C@@H](N)CSSC[C@@H](C(=O)N2CCC[C@H]2C(N)=O)NC(=O)[C@H](CC(N)=O)NC(=O)[C@H](CCC(N)=O)NC1=O [Metabolite B] (H-CYIQNCP-NH2; disulfide 1-6)
[1]
  Ki: 105 nM
[2]
  IC50: > 10000 nM
[3]
  EC50: 110 nM
  Emax: 74.1%
[4]
  Ki: 72.6 nM
[5]
  IC50: > 10000 nM
[6]
  selectivity and activity compared with oxytocin: enhanced selectivity and activity
[7]
  EC50: > 10000 nM

## CC[C@H](C)[C@@H]1NC(=O)[C@H](Cc2ccc(O)cc2)NC(=O)[C@@H](N)CSSC[C@@H](C(=O)N2CCC[C@H]2C(=O)N[C@@H](CC(C)C)C(=O)NCC(N)=O)NC(=O)[C@H](CC(N)=O)NC(=O)[C@H](CCC(N)=O)NC1=O [Oxytocin, reference compound]
[7]; V1aR, relative to vasopressin
  Emax: 82%

— patent US11414459B2 (Kinoxis Therapeutics Pty Ltd, priority 2017, dated 2022)
